Assay results as given in patent US20250171457A1, “NITROGEN-CONTAINING HETEROCYCLIC COMPOUND HAVING NRF2 ACTIVATION EFFECT” (CHUGAI SEIYAKU KABUSHIKI KAISHA, priority 2022, published 2025).
Where two headings read alike, the source gives them in different places.

How the values were obtained:
[1] = test system: Nrf2 transcriptional activity (pARE-Luc reporter) in HepG2 cells; assay: In vitro Nrf2 transcriptional activity measurement by ARE-dependent reporter assay in HepG2 cell; format: cell-based, human
Summary of the method: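 Luminescence readout (Bright-Glo) after 4 h, 37° C compound exposure of HepG2 cells carrying the ARE-luciferase vector pGL4.37. Each well converted to % response versus reference compound at 3.75 μM, and EC50 derived from dose-response curves.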

[2] = test system: Nqo1 (NAD(P)H quinone dehydrogenase 1) mRNA, Nrf2 downstream molecule; assay: In vivo Nrf2 transcriptional activity measurement (Nqo1 mRNA in organs by qPCR); settings: Mus musculus, C57BL/6J mice, 7 to 8 hours
Method: Test Example 2: In Vivo Nrf2 Transcriptional Activity Measurement
A test compound (solvent: 10 vol % dimethyl sulfoxide/50 mM glycine/32 mM sodium hydroxide/physiological saline) was administered to C57BL/6J mice (7-8 weeks old), which were euthanized by whole blood collection under isoflurane anesthesia 7 to 8 hours later, followed by the collection of various organs. mRNA was purified from the collected organs, and the mRNA expression level of Mapk1 as an internal control and the mRNA expression level of Nqo1 (NAD(P)H quinone dehydrogenase 1) as a typical Nrf2 downstream molecule were each measured by qPCR. The Nqo1 mRNA expression level was quantified by comparative CT, and an expression level ratio to a non-administration group was calculated. The administration of the test compound elevated the Nqo1 mRNA expression level in the various organs, confirming that the test compound also has a Nrf2-activating effect in vivo.

[3] = HepG2 cells transfected with pARE-Luc, 4 hours at 37° C., luciferase activity of Example 1-54 or Example 17-23 at 3.75 μM defined as 100%, second printing of Table 20-1
[4] = ip, Intraperitoneal, kidney, read-out: Nqo1 mRNA expression level ratio to non-administration group, Kidney
[5] = ip, Intraperitoneal, liver, read-out: Nqo1 mRNA expression level ratio to non-administration group, Liver
[6] = ip, Intraperitoneal, lung, read-out: Nqo1 mRNA expression level ratio to non-administration group, Lung
[7] = Oral, kidney, read-out: Nqo1 mRNA expression level ratio to non-administration group, Kidney
[8] = Oral, liver, read-out: Nqo1 mRNA expression level ratio to non-administration group, Liver
[9] = Oral, lung, read-out: Nqo1 mRNA expression level ratio to non-administration group, Lung
[10] = Homo sapiens, HepG2 cells transfected with pARE-Luc, 4 hours at 37° C., luciferase activity of Example 1-54 or Example 17-23 at 3.75 μM defined as 100%

SMILES	EC50 [1, 3]	fold induction at 15 mg/kg [2, 4]	fold induction at 15 mg/kg [2, 5]	fold induction at 15 mg/kg [2, 6]	fold induction at 30 mg/kg [2, 7]	fold induction at 30 mg/kg [2, 8]	fold induction at 30 mg/kg [2, 9]	EC50 [1, 10]	fold induction at 15 mg/kg [2, 7]	fold induction at 15 mg/kg [2, 8]	fold induction at 15 mg/kg [2, 9]	EC50 ([1]; HepG2 cells, pARE-Luc reporter, 4 hours, 100% = Example 1-54 or Example 17-23 at 3.75 μM)
CC1(C)COC2(CN(c3cc(Cl)c(C(=O)N4COc5c(cccc5-c5cc(N6C7CCC6COC7)c(C(=O)O)cc5F)C4)c(Cl)c3)C2)OC1 [Compound 5-9, 4-[3-[2,6-Dichloro-4-(7,7-dimethyl-5,9-dioxa-2-azaspiro[3.5]nonan-2-yl)benzoyl]-2,4-dihydro-1,3-benzoxazin-8-yl]-5-fluoro-2-(3-oxa-8-azabicyclo[3.2.1]octan-8-yl)benzoic acid]	1.7 nM	3.7	6.7	15	5.2	6	19					
O=C(O)c1cc(F)c(-c2cccc3c2OCN(C(=O)c2c(Cl)cc(N4CC5(C4)CC4(C5)OCCCO4)cc2Cl)C3)cc1N1C2CCC1COC2 [Compound 5-10, 4-[3-[2,6-Dichloro-4-(7,11-dioxa-2-azadispiro[3.1.56.14]dodecan-2-yl)benzoyl]-2,4-dihydro-1,3-benzoxazin-8-yl]-5-fluoro-2-(3-oxa-8-azabicyclo[3.2.1]octan-8-yl)benzoic acid]		5.1	5.4	17				3.2 nM				
COC1(OC)CN(c2cc(Cl)c(C(=O)N3COc4c(cccc4-c4ccc(C(=O)O)c(N5C6CCC5COC6)c4)C3)c(Cl)c2)C1 [Compound 5-16, 4-[3-[2,6-Dichloro-4-(3,3-dimethoxyazetidin-1-yl)benzoyl]-2,4-dihydro-1,3-benzoxazin-8-yl]-2-(3-oxa-8-azabicyclo[3.2.1]octan-8-yl)benzoic acid]								3.5 nM	3.6	4.8	14	
O=C(O)c1cc(F)c(-c2cccc3c2OCN(C(=O)c2c(Cl)cc(N4CC5(CN(CC(F)F)C5)C4)cc2Cl)C3)cc1N1C2CCC1COC2 [Compound 7-2, 4-[3-[2,6-Dichloro-4-[6-(2,2-difluoroethyl)-2,6-diazaspiro[3.3]heptan-2-yl]benzoyl]-2,4-dihydro-1,3-benzoxazin-8-yl]-5-fluoro-2-(3-oxa-8-azabicyclo[3.2.1]octan-8-yl)benzoic acid]		4.3	6.2	11				4.6 nM				
COC1CC2(C1)CN(c1cc(Cl)c(C(=O)N3COc4c(cccc4-c4cc(N5C6CCC5COC6)c(C(=O)O)cc4F)C3)c(Cl)c1)C2 [Compound 13-16, 4-[3-[2,6-Dichloro-4-(6-methoxy-2-azaspiro[3.3]heptan-2-yl)benzoyl]-2,4-dihydro-1,3-benzoxazin-8-yl]-5-fluoro-2-(3-oxa-8-azabicyclo[3.2.1]octan-8-yl)benzoic acid]		4.8	6.6	20	4.5	6	22					0.95 nM
C[C@@H]1CN(c2ccc(C(=O)N3COc4c(cccc4-c4cc(N5C6CCC5COC6)c(C(=O)O)cc4F)C3)c(Cl)c2)[C@H](C)CN1C [Compound 13-21, 4-[3-[2-Chloro-4-[(2R,5R)-2,4,5-trimethylpiperazin-1-yl]benzoyl]-2,4-dihydro-1,3-benzoxazin-8-yl]-5-fluoro-2-(3-oxa-8-azabicyclo[3.2.1]octan-8-yl)benzoic acid]	2.3 nM				2.9	4.9	3.6					
Cn1cc(-c2cc(Cl)c(C(=O)N3COc4c(cccc4-c4ccc(C(=O)O)c(N5CCOCC5)c4)C3)c(Cl)c2)cn1 [Compound 14-1, 4-[3-[2,6-Dichloro-4-(1-methylpyrazol-4-yl)benzoyl]-2,4-dihydro-1,3-benzoxazin-8-yl]-2-morpholin-4-ylbenzoic acid]					5.7	4.2	17	3.2 nM				
